Laboratory results as given in the supplement of paper PMC10307832.

Key:
Test in all cases: relative viability (nuclei count vs DMSO), 5 days (fraction); higher = more cells survive
Indole-3-carbinol = compound: OCc1c[nH]c2ccccc12 [Indole-3-carbinol]
Outline: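 Lung cancer cell lines were seeded into 1536-well plates, kept overnight at 37 °C and pinned with five library-drug doses (not always all listed) spaced by √10. After 5 days, nuclei were Hoechst-stained, imaged at 4× and counted with MetaXpress. Viability is treated-well nuclei over vehicle-well nuclei, taken as a median across plates. Plates needed control CV below 25% and at least one doubling.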

[1] = compound: OCc1c[nH]c2ccccc12 [Indole-3-carbinol] + CC(C)C[C@H](NC(=O)[C@H](Cc1ccccc1)NC(=O)c1cnccn1)B(O)O [Bortezomib] (partner 0.002 µM)
Outline: (§1)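 The day after seeding in 1536-well plates, lung cancer cell lines were treated by pin tool with a single drug, or with a fixed anchor-drug dose together with five library-drug doses (not always all listed) in √10 steps. After 5 days, a combined fix-and-stain solution (final 0.05% Triton X-100, 1% formaldehyde, 1 ug/ml Hoechst) was added. Nuclei counted on 4× images gave relative viability as treated counts over vehicle counts, reported as the median of duplicate plates.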

[2] = compound: OCc1c[nH]c2ccccc12 [Indole-3-carbinol] + CC1(C)CCC(c2ccc(Cl)cc2)=C(CN2CCN(c3ccc(C(=O)NS(=O)(=O)c4ccc(N[C@H](CCN5CCOCC5)CSc5ccccc5)c(S(=O)(=O)C(F)(F)F)c4)cc3)CC2)C1 [Navitoclax] (partner 0.5 µM)
Outline: as §1

[3] = compound: OCc1c[nH]c2ccccc12 [Indole-3-carbinol] + COc1cc2c(Oc3ccc(NC(=O)C4(C(=O)Nc5ccc(F)cc5)CC4)cc3F)ccnc2cc1OCCCN1CCOCC1 [Foretinib] (partner 0.25 µM)
Outline: as §1

[4] = compound: OCc1c[nH]c2ccccc12 [Indole-3-carbinol] + CS(=O)(=O)CCNCc1ccc(-c2ccc3ncnc(Nc4ccc(OCc5cccc(F)c5)c(Cl)c4)c3c2)o1 [Lapatinib] (partner 2 µM)
Outline: as §1

[5] = compound: OCc1c[nH]c2ccccc12 [Indole-3-carbinol] + CS(=O)(=O)N1CCN(Cc2cc3nc(-c4cccc5[nH]ncc45)nc(N4CCOCC4)c3s2)CC1 [Pictilisib] (partner 1 µM)
Outline: as §1

[6] = compound: OCc1c[nH]c2ccccc12 [Indole-3-carbinol] + C[C@@H](Oc1cc(-c2cnn(C3CCNCC3)c2)cnc1N)c1c(Cl)ccc(F)c1Cl [Crizotinib] (partner 1 µM)
Outline: as §1

[7] = compound: OCc1c[nH]c2ccccc12 [Indole-3-carbinol] + C[C@]1(O)C[C@@H](c2nc(-c3ccc4ccc(-c5ccccc5)nc4c3)c3c(N)nccn32)C1 [Linsitinib] (partner 1 µM)
Outline: as §1

[8] = compound: OCc1c[nH]c2ccccc12 [Indole-3-carbinol] + Cc1nc(NC(=O)N2CCC[C@H]2C(N)=O)sc1-c1ccnc(C(C)(C)C(F)(F)F)c1 [Alpelisib] (partner 2 µM)
Outline: as §1

[9] = compound: OCc1c[nH]c2ccccc12 [Indole-3-carbinol] + O=C(c1cc(Cc2n[nH]c(=O)c3ccccc23)ccc1F)N1CCN(C(=O)C2CC2)CC1 [Olaparib] (partner 8 µM)
Outline: as §1

Row | Cell Line | relative viability (Indole-3-carbinol; 0.253 µM) | relative viability (Indole-3-carbinol; 0.8 µM) | relative viability (Indole-3-carbinol; 2.53 µM) | relative viability (Indole-3-carbinol; 8 µM) | relative viability ([1]; first compound 0.253 µM) | relative viability ([1]; first compound 0.8 µM) | relative viability ([1]; first compound 2.53 µM) | relative viability ([1]; first compound 8 µM) | relative viability ([2]; first compound 0.253 µM) | relative viability ([2]; first compound 0.8 µM) | relative viability ([2]; first compound 2.53 µM) | relative viability ([2]; first compound 8 µM) | relative viability ([3]; first compound 0.253 µM) | relative viability ([3]; first compound 0.8 µM) | relative viability ([3]; first compound 2.53 µM) | relative viability ([3]; first compound 8 µM) | relative viability ([4]; first compound 0.253 µM) | relative viability ([4]; first compound 0.8 µM) | relative viability ([4]; first compound 2.53 µM) | relative viability ([4]; first compound 8 µM) | relative viability ([5]; first compound 0.253 µM) | relative viability ([5]; first compound 0.8 µM) | relative viability ([5]; first compound 2.53 µM) | relative viability ([5]; first compound 8 µM) | relative viability ([6]; first compound 0.253 µM) | relative viability ([6]; first compound 0.8 µM) | relative viability ([6]; first compound 2.53 µM) | relative viability ([6]; first compound 8 µM) | relative viability ([7]; first compound 0.253 µM) | relative viability ([7]; first compound 0.8 µM) | relative viability ([7]; first compound 2.53 µM) | relative viability ([7]; first compound 8 µM) | relative viability ([8]; first compound 0.253 µM) | relative viability ([8]; first compound 0.8 µM) | relative viability ([8]; first compound 2.53 µM) | relative viability ([8]; first compound 8 µM) | relative viability ([9]; first compound 0.253 µM) | relative viability ([9]; first compound 0.8 µM) | relative viability ([9]; first compound 2.53 µM) | relative viability ([9]; first compound 8 µM)
1 | Calu-6 | 1.07 | 0.994 | 1 | 0.914 | 1.08 | 1.1 | 1.01 | 0.966 | 0.836 | 0.947 | 0.889 | 0.648 | 0.927 | 0.941 | 0.842 | 0.841 | 1.03 | 1.12 | 1.05 | 0.94 | 0.887 | 1.05 | 0.916 | 0.865 | 0.759 | 0.863 | 0.871 | 0.742 | 0.974 | 0.88 | 1.07 | 0.92 | 1.04 | 0.966 | 0.819 | 0.922 | 0.615 | 0.629 | 0.59 | 0.536
2 | EBC-1 | 0.938 | 1.01 | 1.07 | 0.871 | 0.546 | 0.541 | 0.628 | 0.477 | 0.355 | 0.404 | 0.39 | 0.415 | 0.122 | 0.0975 | 0.1 | 0.102 | 0.196 | 0.186 | 0.228 | 0.244 | 0.359 | 0.4 | 0.347 | 0.364 | 0.176 | 0.188 | 0.205 | 0.169 | 0.974 | 0.965 | 1.07 | 0.71 | 0.826 | 0.856 | 0.83 | 0.719 | 0.684 | 0.732 | 0.631 | 0.566
3 | NCI-H1299 | 1.02 | 1.04 | 0.999 | 0.989 | 0.977 | 1.02 | 1.01 | 1.03 | 1.01 | 1.05 | 1.03 | 1.02 | 1.07 | 1.07 | 1.14 | 1.04 | 0.892 | 0.997 | 0.925 | 0.945 | 0.795 | 0.879 | 0.691 | 0.761 | 0.924 | 1 | 0.952 | 0.906 | 0.986 | 1 | 1.02 | 0.869 | 1.05 | 1.11 | 1.11 | 1.01 | 0.907 | 0.995 | 0.954 | 0.952
